Reference: patent US12109272B2, “Intermittent dosing of glucocorticoid receptor modulators for the treatment of ovarian and other cancers” (Corcept Therapeutics Incorporated, priority 2021, dated 2024)

Tests used:
Assay type in all cases: in vivo, human
GR-inducible genes = test: Separate healthy volunteer study: genes induced in whole blood by prednisone; conditions: single dose, healthy volunteers
[1] = Phase 2 study: exposures (AUC, Cmax) of relacorilant and nab-paclitaxel; conditions: patients
Protocol: The exposures and peak concentrations of both nab-paclitaxel and of relacorilant were measured.

[2] = Phase 2 study: safety and tolerability (adverse events); conditions: relacorilant (intermittent or continuous) + nab-paclitaxel compared to nab-paclitaxel monotherapy; data as of Mar. 22, 2021
Protocol: Independent comparisons for the intermittent versus (vs.) comparator study arms and the continuous vs. comparator arms were performed. The primary endpoint of the study was progression-free survival as determined by the Response Evaluation Criteria in Solid Tumors (“RECIST”) version 1.1 guidelines (available via the World Wide Web at the following URL: ctep.cancer.gov/protocolDevelopment/docs/recist_guideline.pdf). Secondary endpoints included objective response rate, duration of response, overall survival, and safety of the combined administration of nab-paclitaxel and relacorilant. All efficacy objectives and corresponding endpoints listed below, assessment for response and disease progression were assessed according to RECIST v1.1.
Relacorilant treatment was safe, for both the intermittent and continuous groups, and was well tolerated by the patients. […] Safety and tolerability of the three treatment regimens is illustrated in FIG. 8 (data as of Mar. 22, 2021). There were fewer serious (grade ≥3) peripheral neuropathies in the intermittent group than the comparator group. […]

variability of exposures ([1]; all groups, AUC and Cmax) | SMILES | number of genes induced (GR-inducible genes) | exposures (AUC and Cmax) versus safety endpoints, presence or absence of the adverse events [1] | safety and tolerability [2]
 | C[C@]12C=CC(=O)C=C1CC[C@@H]1[C@@H]2C(=O)C[C@@]2(C)[C@H]1CC[C@]2(O)C(=O)CO [prednisone] | 239 |  | 
large variability | Cn1cc(S(=O)(=O)N2CCC3=Cc4c(cnn4-c4ccc(F)cc4)C[C@]3(C(=O)c3cc(C(F)(F)F)ccn3)C2)cn1 [relacorilant, (R)-(1-(4-fluorophenyl)-6-((1-methyl-1H-pyrazol-4-yl)sulfonyl)-4,4a,5,6,7,8-hexahydro-1H-pyrazolo[3,4-g]isoquinolin-4a-yl)(4-(trifluoromethyl)pyridin-2-yl)methanone] |  | largely overlapping exposures | safe
